Assay results taken from PubChem BioAssay (NCI).
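Each compound was tested at five concentrations against cells in 96-well plates for 48 hours. Abbreviation: GI50, concentration required for 50% inhibition of growth. The concentration for full growth arrest is given as TGI.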

Tests used:
Assay in all cases: inhibition of tumour cell growth, NCI panel, 48 h
[1] = tested on: SK-MEL-28 melanoma
[2] = tested on: HCC-2998 colon
[3] = tested on: KM20L2 colon
[4] = tested on: DMS 114 small cell lung
[5] = tested on: DMS 273 small cell lung
[6] = tested on: U251 CNS
[7] = tested on: HL-60(TB) leukemia
[8] = tested on: K-562 leukemia
[9] = tested on: HOP-18 NSCLC
[10] = tested on: HT29 colon
[11] = tested on: DU-145 prostate
[12] = tested on: UACC-62 melanoma
[13] = tested on: SF-268 CNS
[14] = tested on: KM12 colon
[15] = tested on: SF-539 CNS
[16] = tested on: M14 melanoma
[17] = tested on: NCI-H226 lung
[18] = tested on: OVCAR-5 ovarian
[19] = tested on: ACHN renal
[20] = tested on: NCI-H460 lung
[21] = tested on: MCF7 breast
[22] = tested on: SF-295 CNS
[23] = tested on: NCI-H522 lung
[24] = tested on: UACC-257 melanoma
[25] = tested on: SK-MEL-2 melanoma
[26] = tested on: TK-10 renal
[27] = tested on: SNB-78 CNS
[28] = tested on: OVCAR-3 ovarian
[29] = tested on: DLD-1 colon
[30] = tested on: COLO 205 colon
[31] = tested on: PC-3 prostate
[32] = tested on: CAKI-1 renal
[33] = tested on: UO-31 renal
[34] = tested on: MOLT-4 leukemia
[35] = tested on: IGROV1 ovarian
[36] = tested on: SK-MEL-5 melanoma
[37] = tested on: SR leukemia
[38] = tested on: HOP-92 NSCLC
[39] = tested on: SW-620 colon
[40] = tested on: EKVX NSCLC
[41] = tested on: HOP-62 NSCLC
[42] = tested on: NCI-H23 lung
[43] = tested on: BT-549 breast
[44] = tested on: LOX IMVI melanoma
[45] = tested on: SK-OV-3 ovarian
[46] = tested on: SNB-19 CNS
[47] = tested on: M19-MEL melanoma
[48] = tested on: CCRF-CEM leukemia
[49] = tested on: A498 renal

## O=C1C=CC=C[C@@H]2C(C3OCCO3)CC[C@H]12.[C-]#[O+].[C-]#[O+].[C-]#[O+].[Fe] (stereo partly specified)
[1]
  TGI: > 46.9 µM
[2]
  GI50: > 76.6 µM
  TGI: > 100 µM
[3]
  GI50: > 100 µM
  TGI: > 100 µM
[4]
  GI50: 20.1 µM
  TGI: 45.2 µM
[5]
  GI50: 30.6 µM
  TGI: > 100 µM
[6]
  GI50: 44.7 µM
  TGI: > 82.5 µM
[7]
  TGI: > 100 µM
[8]
  GI50: 41.6 µM
  TGI: > 100 µM
[9]
  GI50: > 52.8 µM
  TGI: > 85.1 µM
[10]
  GI50: 42.6 µM
  TGI: > 100 µM
[11]
  GI50: 93.3 µM
  TGI: > 100 µM
[12]
  GI50: > 59.8 µM
  TGI: > 100 µM
[13]
  GI50: > 60 µM
  TGI: > 100 µM
[14]
  GI50: 48 µM
  TGI: > 100 µM
[15]
  GI50: 44.6 µM
  TGI: 77.2 µM
[16]
  GI50: 37.8 µM
  TGI: > 74.9 µM
[17]
  GI50: > 83.5 µM
  TGI: > 100 µM
[18]
  GI50: > 100 µM
  TGI: > 100 µM
[19]
  GI50: 34.8 µM
  TGI: > 65.6 µM
[20]
  GI50: 45.2 µM
  TGI: > 100 µM
[21]
  GI50: 37.3 µM
  TGI: > 100 µM
[22]
  GI50: 44.4 µM
  TGI: > 100 µM
[23]
  GI50: 29 µM
  TGI: 46 µM
[24]
  GI50: 98.5 µM
  TGI: > 100 µM
[25]
  GI50: > 71.1 µM
  TGI: > 100 µM
[26]
  GI50: > 100 µM
  TGI: > 100 µM
[27]
  GI50: 22.8 µM
  TGI: 66 µM
[28]
  GI50: 40.6 µM
  TGI: > 100 µM
[29]
  GI50: 19.8 µM
  TGI: 45 µM
[30]
  GI50: 49.9 µM
  TGI: > 70.4 µM
[31]
  GI50: 98.9 µM
  TGI: > 100 µM
[32]
  GI50: 93.3 µM
  TGI: > 100 µM
[33]
  GI50: 42.7 µM
  TGI: > 78.4 µM
[34]
  GI50: 26.5 µM
  TGI: 68.1 µM
[35]
  GI50: 26 µM
  TGI: 78.7 µM
[36]
  GI50: > 100 µM
  TGI: > 100 µM
[37]
  GI50: 18.4 µM
  TGI: > 83.5 µM
[38]
  GI50: > 100 µM
  TGI: > 100 µM
[39]
  GI50: 29.9 µM
  TGI: > 100 µM
[40]
  GI50: > 100 µM
  TGI: > 100 µM
[41]
  GI50: > 95.3 µM
  TGI: > 100 µM
[42]
  GI50: > 52.8 µM
  TGI: > 83.7 µM
[43]
  GI50: 51.4 µM
  TGI: > 100 µM
[44]
  GI50: 1.09 µM
  TGI: 5.66 µM
[45]
  GI50: > 96 µM
  TGI: > 100 µM
[46]
  GI50: > 100 µM
  TGI: > 100 µM
[47]
  GI50: 19.9 µM
  TGI: 37 µM
[48]
  GI50: 24.4 µM
  TGI: > 89.8 µM
[49]
  GI50: > 100 µM
  TGI: > 100 µM
